# Results from patent publication US20160151444A1, “METHODS FOR THE PREVENTION OR TREATMENT OF VESSEL OCCLUSION INJURY” (Stealth Peptides International, Inc., priority 2009, published 2016).
# Non-standard residues stand in square brackets, D forms with d. No end group written: not given here.
# What was measured:
# [1] = tested on: several mammalian cell types; settings: energy-independent manner; Zhao et al. 2003; cited from earlier work
# mu-opioid receptor = settings: stated in the description, no data shown; cited from earlier work
# [2] = tested on: New Zealand white rabbits; assay: Rabbit model of acute myocardial ischemia and reperfusion (coronary occlusion), infarct size by histomorphometry; assay type: in vivo
# Experimental: New Zealand white rabbits were used in this study. The rabbits were males and >10 weeks in age. Environmental controls in the animal rooms were set to maintain temperatures of 61° to 72° F. and relative humidity between 30% and 70%. Room temperature and humidity were recorded hourly, and monitored daily. There were approximately 10-15 air exchanges per hour in the animal rooms. Photoperiod was 12-hr light/12-hr dark (via fluorescent lighting) with exceptions as necessary to accommodate dosing and data collection. Routine daily observations were performed. Harlan Teklad, Certified Diet (2030C), rabbit diet was provided approximately 180 grams per day from arrival to the facility. In addition, fresh fruits and vegetables were given to the rabbit 3 times a week.
# The peptide D-Arg-2′6′-Dmt-Lys-Phe-NH2 (sterile lyophilized powder) was used as the test article. Dosing solutions were formulated at no more than 1 mg/ml, and were delivered via continuous infusion (IV) at a constant rate (e.g., 50 μL/kg/min). Normal saline (0.9% NaCl) was used as a control.
# The test/vehicle articles were given intravenously, under general anesthesia, in order to mimic the expected route of administration in the clinical setting of AMI and PTCA. Intravenous infusion was administered via a peripheral vein using a Kd Scientific infusion pump (Holliston, Mass. 01746) at a constant volume (e.g., 50 μL/kg/min).
# The study followed a predetermined placebo and sham controlled design. In short, 10-20 healthy, acclimatized, male rabbits were assigned to one of three study arms (approximately 2-10 animals per group). Arm A (n=10, CTRL/PLAC) includes animals treated with vehicle (vehicle; VEH, IV); Arm B (n=10, treated) includes animals treated with peptide; Arm C (n=2, SHAM) includes sham-operated time-controls treated with vehicle (vehicle; VEH, IV) or peptide.
# In all cases, treatments were started approximately 10 min after the onset of a 30 min ischemic insult (coronary occlusion) and continued for up to 3 h following reperfusion. In all cases, cardiovascular function was monitored both prior to and during ischemia, as well as for up to 180 min (3 h) post-reperfusion. The experiments were terminated 3 h post-reperfusion (end of study); irreversible myocardial injury (infarct size by histomorphometery) at this time-point was evaluated, and was the primary-end-point of the study.
# General anesthesia was induced intramuscularly (IM) with a ketamine (˜35-50 mg/kg)/xylazine (˜5-10 mg/kg) mixture. A venous catheter was placed in a peripheral vein (e.g., ear) for the administration of anesthetics. In order to preserve autonomic function, anesthesia was maintained with continuous infusions of propofol (˜8-30 mg/kg/hour) and ketamine (˜1.2-2.4 mg/kg/hr). A cuffed tracheal tube was placed via a tracheotomy (ventral midline incision) and used to mechanically ventilate the lungs with a 95% O2/5% CO2 mixture via a volume-cycled animal ventilator (˜40 breaths/minute with a tidal volume of −12.5 ml/kg) in order to sustain PaCO2 values broadly within the physiological range.
# Once a surgical plane of anesthesia was reached, either transthoracic or needle electrodes forming two standard ECG leads (e.g., lead II, aVF, V2) were placed. A cervical cut-down exposed a carotid artery, which was isolated, dissected free from the surrounding tissue and cannulated with a dual-sensor high-fidelity micromanometer catheter (Millar Instruments); the tip of this catheter was advanced into the left-ventricle (LV) retrogradely across the aortic valve, in order to simultaneously determine aortic (root, proximal transducer) and left-ventricular (distal transducer) pressures. The carotid cut-down also exposed the jugular vein, which was cannulated with a hollow injection catheter (for blood sampling). Finally, an additional venous catheter was placed in a peripheral vein (e.g., ear) for the administration of vehicle/test articles. […]
# [3] = tested on: subjects with STEMI and hypertension; assay: EMBRACE STEMI trial, subjects with anterior STEMI undergoing PCI; hypertensive subgroup compared; assay type: in vivo, human
# Experimental: The EMBRACE STEMI study is known in the art (see e.g., Chakrabarti et al., Am Heart J, 165(4):509-514 (2013), the content of which is incorporate by reference in its entirety). Briefly, the EMBRACE STEMI trial is a multicenter, randomized, double-blind, placebo-controlled study. The study design was approved by institutional and national regulatory bodies and ethical committees. Multiple safety reviews were performed by an independent Data and Safety Monitoring Board throughout the course of the trial. All subjects provided written informed consent prior to randomization.
# Subjects aged 18 to 85 years with anterior STEMI undergoing first-time percutaneous coronary intervention (PCI) plus stenting with an anticipated time from ischemic symptoms to time of balloon inflation <4 hours, with >0.1 mV ST-segment elevation in at least 2 contiguous precordial leads were enrolled. Major exclusion criteria included a history of prior myocardial infarction (MI), previous heart failure (e.g., known left ventricle ejection fraction (LVEF)<30% prior to the qualifying infarct), and cardiogenic shock.
# To assess efficacy in large MIs that had not sustained reperfusion injury, only subjects who met angiographic and post-PCI inclusion criteria were included in the primary analysis population (PAP) (FIG. 7): (1) the presence of a proximal/mid left anterior descending (LAD) occlusion with pre-PCI TIMI flow 0 or 1 and no visible evidence of significant coronary collateral flow; (2) dilation of only the LAD; (3) successful PCI of the LAD with post-PCI TIMI flow >2; and (4) no evidence of a second MI within 72 hours of the initial PCI which would confound the infarct size determination.
# Subjects were randomized in a double blind 1:1 fashion to receive either D-Arg-2′,6′-Dmt-Lys-Phe-NH2 of at 0.05 mg/kg/hr or a control placebo by IV injection (Treatment group: n=58; Control group: n=60). D-Arg-2′,6′-Dmt-Lys-Phe-NH2 was administered >15 minutes, but <60 minutes prior to PCI and for 1 hour following reperfusion. Subjects underwent cardiac magnetic resonance imaging (MRI) at 4±1 days and again at 30±7 days post-PCI. Follow-up visits were conducted at discharge, at 30±7 days, 90±14 days, and 6±1.5 months post-PCI.
# The primary end point of the study was infarct size, or the area under the curve (AUC) of creatine kinase-MB (CK-MB) enzyme over 72 hours following PCI with the values log transformed and adjusted for the percent of artery distal to the occlusion and duration of symptoms (two variables known to confound the estimation of infarct size).19-21 Secondary end points included the AUCO-72 of troponin I, peak cardiac enzymes, the ratio of the volume of infarcted myocardium (late contrast gadolinium enhancement) to the left ventricular (LV) mass on cardiac Mill at day 4±1, day 30±7, and the change (4) in ratios from day 4±1 to day 30±7, measures of myocardial structure and function (left ventricular ejection fraction (LVEF), left ventricular end systolic volume (LVESV), and left ventricular end diastolic volume (LVEDV)) at day 4±1, day 30±7, and the change (4) in these measures from day 4±1 to day 30±7, TIMI myocardial perfusion grade (TMPG), TIMI flow grade (TFG), corrected TIMI frame count post-PCI and complete ST-segment elevation resolution (>70%) by the Schroder criteria. Laboratory measures of congestive heart failure (CHF) (N-terminal pro-B type natriuretic […]), and renal function (serum creatinine, estimated glomerular filtration rate, cystatin C, and blood urea nitrogen) were also evaluated.
# The incidence of the clinical composite endpoint of all-cause death, new-onset CHF beginning >24 hours post-PCI and within the duration of the index hospitalization, and CHF re-hospitalization was also determined through 30±7 days and 6±1.5 months post-PCI. Safety endpoints included treatment emergent adverse events (TEAE). The pharmacokinetic profile of D-Arg-2′6′-Dmt-Lys-Phe-NH2 was determined based on the drug serum concentration. […]
# [4] = 30 min ischemia, 180 min reperfusion, IV continuous infusion from 10 min of ischemia, n = 10, means with standard errors
# [5] = peptide group versus placebo group, p < 0.05
substance,measurement,setting,value
"2′,6′-Dmt-D-Arg-Phe-Lys-NH2",Penetration of the plasma membrane,[1],readily penetrates the plasma membrane
"D-Arg-2′,6′-Dmt-Lys-Phe-NH2 [D-Arg-2′6′-Dmt-Lys-Phe-NH2]",Mu-opioid receptor agonist activity,mu-opioid receptor,does not have mu-opioid receptor agonist activity
same,Myocardial Area (%) IA/AR (infarcted area to area of risk),[2]; [4],24.7 ± 4.7%
same,Myocardial Area (%) IA/LV (infarcted area to left ventricular area),[2]; [4],16.2 ± 3.4%
same,Infarct size compared to the control,"[2]; induced cardiac ischemia, FIGS. 4A-4E",decreased infarct size
same,"IA/AR, % versus placebo",[2]; [5],−32 ± 13%
same,"IA/LV, % versus placebo",[2]; [5],−24 ± 16%
same,Myocardial salvage with shorter treatment,"[2]; treatment for less than 3 hours after reperfusion, i.e., 30 min, data not shown",comparable myocardial salvage
same,Proportion of complete or partial ST segment resolution,"[3]; 24 hours post-PCI, hypertensive subjects, control 88.2%, p=0.05",100%
same,Mean infarct volume on cardiac MRI,"[3]; day 4±1, 0.05 mg/kg/hr IV, control 52.6±30.2, p=0.03",35.8 ± 22.8 mL
same,Mean left ventricle (LV) mass,"[3]; hypertensive subjects, 0.05 mg/kg/hr IV, control 162.2±52.4, p=0.08",141.5±53.2 grams
same,New onset CHF during the first 8 hours post-PCI,"[3]; hypertensive subjects, control 11 incidents",5 incidents
same,New onset CHF <24 hours post-PCI,"[3]; hypertensive subjects, control 15 incidents",8 incidents
same,Myocardial edema on cardiac MRI,"[3]; hypertensive subjects, control 60.9±20.5, p=0.053",48.9±22.0
F[dR]FK-NH2,Mu-opioid receptor agonist activity,mu-opioid receptor,does not have mu-opioid receptor agonist activity
Tyr-D-Arg-Phe-Lys-NH2,Mu-opioid receptor agonist activity,mu-opioid receptor,has mu-opioid receptor agonist activity
